From patent publication US11324749B2, “Combination therapy for treatment of hematological diseases” (Incyte Corporation, priority 2018, dated 2022)
pIC50: −log10 of the molar value.

Legend:
[1] = target: human JAK1 (a.a. 837-1142) (Homo sapiens, UniProt P23458); assay: In vitro JAK kinase assay (HTRF), JAK1; assay type: biochemical; conditions: 1 mM ATP
Experimental: (§1) The catalytic activity of JAK1, JAK2, or JAK3 was assayed by measuring the phosphorylation of a biotinylated peptide. The phosphorylated peptide was detected by homogenous time resolved fluorescence (HTRF). […] Reactions are carried out at room temperature for 1 hour and then stopped with 20 μL 45 mM EDTA, 300 nM SA-APC, 6 nM Eu-Py20 in assay buffer (Perkin Elmer, Boston, Mass.). Binding to the Europium labeled antibody takes place for 40 minutes and HTRF signal was measured on a Fusion plate reader (Perkin Elmer, Boston, Mass.).

[2] = target: human JAK2 (a.a. 828-1132) (Homo sapiens (Human), UniProt O60674); assay: In vitro JAK kinase assay (HTRF), JAK2 versus JAK1; assay type: biochemical; conditions: IC50 ratio, 1 mM ATP
Sequence of human JAK2 (a.a. 828-1132) (O60674 828-1132): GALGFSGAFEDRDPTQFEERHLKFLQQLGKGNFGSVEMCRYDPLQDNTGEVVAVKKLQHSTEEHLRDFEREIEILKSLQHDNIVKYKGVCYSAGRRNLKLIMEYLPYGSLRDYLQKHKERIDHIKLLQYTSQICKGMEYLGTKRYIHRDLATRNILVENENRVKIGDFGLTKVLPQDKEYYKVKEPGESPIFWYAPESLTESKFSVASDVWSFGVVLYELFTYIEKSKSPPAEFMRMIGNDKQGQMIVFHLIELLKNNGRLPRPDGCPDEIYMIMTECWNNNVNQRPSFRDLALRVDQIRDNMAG
Experimental: as §1

[3] = system: Human multiple myeloma cell lines KMS12BM, OPM2, MM1.R, MM1.S and KMS11; assay: Cell Titer Glo viability of multiple myeloma cell lines; assay type: cell-based; conditions: 72 hours, compared to DMSO treated controls, all five cell lines
Experimental: Human multiple myeloma cell lines KMS12BM, OPM2 (DSMZ), MM1.R, MM1.S (ATCC) and KMS11 (JCRB) were seeded into white 96 well plates (Greiner Bio One) at 10^4 cells in 100 μL media. Combinations of dexamethasone (Sigma), lenalidomide (Chemscene), itacitinib, or DMSO control were then added. Doses were selected based on pilot studies designed to find sensitivities of each cell line to these agents. Each dose combination was performed in triplicate. After 72 hours, Cell Titer Glo (Promega) assays were performed as per manufacturer protocol to assess cell viability.
Statistical analyses were performed using Prism Graphpad software. P values were calculated from unpaired t tests—*p<0.05; **p<0.01; ****p<0.0001).

## N#CCC1(n2cc(-c3ncnc4[nH]ccc34)cn2)CN(C2CCN(C(=O)c3ccnc(C(F)(F)F)c3F)CC2)C1 [Compound 1, {1-{1-[3-Fluoro-2-(trifluoromethyl)isonicotinoyl]piperidin-4-yl}-3-[4-(7H-pyrrolo[2,3-d]pyrimidin-4-yl)-1H-pyrazol-1-yl]azetidin-3-yl}acetonitrile]
[1]
  pIC50: > 8.00
[2]
  JAK2/JAK1: >10
[3]
  cell viability: no change in viability

## N#CC[C@]1(n2cc(-c3ncnc4[nH]ccc34)cn2)C[C@H](N2CCC(Oc3cc(CN4CCC[C@@H]4CO)cc(C(F)(F)F)n3)CC2)C1 [Compound 13, {trans-3-(4-{[4-{[(2R)-2-(hydroxymethyl)pyrrolidin-1-yl]methyl}-6-(trifluoromethyl)pyridin-2-yl]oxy}piperidin-1-yl)-1-[4-(7H-pyrrolo[2,3-d]pyrimidin-4-yl)-1H-pyrazol-1-yl]cyclobutyl}acetonitrile]
[1]
  pIC50: > 8.00
[2]
  JAK2/JAK1: >10

## C[C@H](NC(=O)c1cc(F)c(N2CC(CC#N)(n3cc(-c4ncnc5[nH]ccc45)cn3)C2)cc1F)C(F)(F)F [Compound 16, 4-{3-(cyanomethyl)-3-[4-(7H-pyrrolo[2,3-d]pyrimidin-4-yl)-1H-pyrazol-1-yl]azetidin-1-yl}-2,5-difluoro-N-[(1S)-2,2,2-trifluoro-1-methylethyl]benzamide]
[1]
  pIC50: > 8.00
[2]
  JAK2/JAK1: >10

## N#CCC1(n2cc(-c3ncnc4[nH]ccc34)cn2)CN([C@H]2CC[C@@H](Oc3cc(CCO)nc(C(F)(F)F)n3)CC2)C1 [Compound 18, {1-(cis-4-{[6-(2-hydroxyethyl)-2-(trifluoromethyl)pyrimidin-4-yl]oxy}cyclohexyl)-3-[4-(7H-pyrrolo[2,3-d]pyrimidin-4-yl)-1H-pyrazol-1-yl]azetidin-3-yl}acetonitrile]
[1]
  pIC50: > 8.00
[2]
  JAK2/JAK1: >10

## CCNCc1cc(O[C@H]2CC[C@@H](N3CC(CC#N)(n4cc(-c5ncnc6[nH]ccc56)cn4)C3)CC2)nc(C(F)(F)F)c1 [Compound 19, {1-(cis--4{[4-[(ethylamino)methyl]-6-(trifluoromethyl)pyridin-2-yl]oxy}cyclohexyl)-3-[4-(7H-pyrrolo[2,3-d]pyrimidin-4-yl)-1H-pyrazol-1-yl]azetidin-3-yl}acetonitrile]
[1]
  pIC50: > 8.00
[2]
  JAK2/JAK1: >10

## CC(C)(O)c1cc(O[C@H]2CC[C@@H](N3CC(CC#N)(n4cc(-c5ncnc6[nH]ccc56)cn4)C3)CC2)nc(C(F)(F)F)c1 [Compound 20, {1-(cis-4-{[4-(1-hydroxy-1-methylethyl)-6-(trifluoromethyl)pyridin-2-yl]oxy}cyclohexyl)-3-[4-(7H-pyrrolo[2,3-d]pyrimidin-4-yl)-1H-pyrazol-1-yl]azetidin-3-yl}acetonitrile]
[1]
  pIC50: > 8.00
[2]
  JAK2/JAK1: >10

## N#CCC1(n2cc(-c3ncnc4[nH]ccc34)cn2)CN([C@H]2CC[C@@H](Oc3cc(CN4CC[C@@H](O)C4)cc(C(F)(F)F)n3)CC2)C1 [Compound 21, {1-(cis-4-{[4-{[(3R)-3-hydroxypyrrolidin-1-yl]methyl}-6-(trifluoromethyl)pyridin-2-yl]oxy}cyclohexyl)-3-[4-(7H-pyrrolo[2,3-d]pyrimidin-4-yl)-1H-pyrazol-1-yl]azetidin-3-yl}acetonitrile]
[1]
  pIC50: > 8.00
[2]
  JAK2/JAK1: >10

## N#CCC1(n2cc(-c3ncnc4[nH]ccc34)cn2)CN([C@H]2CC[C@@H](Oc3cc(CN4CC[C@H](O)C4)cc(C(F)(F)F)n3)CC2)C1 [Compound 22, {1-(cis-4-{[4-{[(3S)-3-hydroxypyrrolidin-1-yl]methyl}-6-(trifluoromethyl)pyridin-2-yl]oxy}cyclohexyl)-3-[4-(7H-pyrrolo[2,3-d]pyrimidin-4-yl)-1H-pyrazol-1-yl]azetidin-3-yl}acetonitrile]
[1]
  pIC50: > 8.00
[2]
  JAK2/JAK1: >10

## C[C@@H](CO)NCc1cc(OC2CCN([C@H]3C[C@](CC#N)(n4cc(-c5ncnc6[nH]ccc56)cn4)C3)CC2)nc(C(F)(F)F)c1 [Compound 23, {trans-3-(4-{[4-({[(1S)-2-hydroxy-1-methylethyl]amino}methyl)-6-(trifluoromethyl)pyridin-2-yl]oxy}piperidin-1-yl)-1-[4-(7H-pyrrolo[2,3-d]pyrimidin-4-yl)-1H-pyrazol-1-yl]cyclobutyl}acetonitrile]
[1]
  pIC50: > 8.00
[2]
  JAK2/JAK1: >10

## C[C@@H](O)CNCc1cc(OC2CCN([C@H]3C[C@](CC#N)(n4cc(-c5ncnc6[nH]ccc56)cn4)C3)CC2)nc(C(F)(F)F)c1 [Compound 24, {trans-3-(4-{[4-({[(2R)-2-hydroxypropyl]amino}methyl)-6-(trifluoromethyl)pyridin-2-yl]oxy}piperidin-1-yl)-1-[4-(7H-pyrrolo[2,3-d]pyrimidin-4-yl)-1H-pyrazol-1-yl]cyclobutyl}acetonitrile]
[1]
  pIC50: > 8.00
[2]
  JAK2/JAK1: >10

## C[C@H](O)CNCc1cc(OC2CCN([C@H]3C[C@](CC#N)(n4cc(-c5ncnc6[nH]ccc56)cn4)C3)CC2)nc(C(F)(F)F)c1 [Compound 25, {trans-3-(4-{[4-({[(2S)-2-hydroxypropyl]amino}methyl)-6-(trifluoromethyl)pyridin-2-yl]oxy}piperidin-1-yl)-1-[4-(7H-pyrrolo[2,3-d]pyrimidin-4-yl)-1H-pyrazol-1-yl]cyclobutyl}acetonitrile]
[1]
  pIC50: > 8.00
[2]
  JAK2/JAK1: >10

## N#CC[C@]1(n2cc(-c3ncnc4[nH]ccc34)cn2)C[C@H](N2CCC(Oc3cc(CCO)cc(C(F)(F)F)n3)CC2)C1 [Compound 26, {trans-3-(4-{[4-(2-hydroxyethyl)-6-(trifluoromethyl)pyridin-2-yl]oxy}piperidin-1-yl)-1-[4-(7H-pyrrolo[2,3-d]pyrimidin-4-yl)-1H-pyrazol-1-yl]cyclobutyl}acetonitrile]
[1]
  pIC50: > 8.00
[2]
  JAK2/JAK1: >10
